The source of these data is US20070286888A1, “Additive For Feeds And Feed Containing The Same” (Kabushiki Kaisha Yakult Honsha, priority 2004, published 2007).

In assay [1] the test system is L. reuteri YIT0480 strain. The experiment in a line: Antibiotic resistance test, L. reuteri. It counts as cell-based, Lactobacillus reuteri. How it is done:
(§1) The 11 antibiotics shown in Table 3 were separately added at concentrations of 100, 10, 1, 0.1, and 0 μg/ml, to thereby prepare MRS agar mediums (manufactured by Difco). Subsequently, cell culture solutions of the five bacterial stains (A) and (B) obtained in Production Example 1 (10 μl each) were separately inoculated into the respective antibiotic-containing MRS mediums (the cell number of each bacterial strain: about 1·10^8 cells/ml), followed by smear culture at 37° C. for 48 hours under anaerobic conditions. The proliferated bacteria were evaluated with the naked eye, and the […] for each antibiotic (μg/ml) were calculated.

The test system of the next assay is L. equi YIT0483 strain. The experiment in a line: Antibiotic resistance test, L. equi. The class given is cell-based, Lactobacillus equi. How it is done: as §1
Assay [2] has as its system five Lactobacillus bacterial stains (A) and (B). The assay can be described thus: Antibiotic resistance test, all five strains. It counts as cell-based. How it is done: as §1
The nature of assay [3]: Proliferative activity test in skim milk media. The class given is cell-based. The note with it: for Proliferative activity 24 hours later P / Proliferative activity 48 hours later P: 0.1% peptone +10% skim milk; for Proliferative activity 24 hours later P / Proliferative activity 48 hours later P / Proliferative activity 24 hours later YP / Proliferative activity 48 hours later YP / Proliferative activity 24 hours later YE / Proliferative activity 48 hours later YE / Proliferative activity 24 hours later SM / Proliferative activity 48 hours later SM: 37° C.; for Proliferative activity 24 hours later YP / Proliferative activity 48 hours later YP: 0.1% yeast extract +0.1% peptone +10% skim milk; for Proliferative activity 24 hours later YE / Proliferative activity 48 hours later YE: 0.1% yeast extract +10% skim milk; for Proliferative activity 24 hours later SM / Proliferative activity 48 hours later SM: 10% skim milk. Also noted: key to Proliferative activity 24 hours later SM / Proliferative activity 24 hours later YE / Proliferative activity 24 hours later P / Proliferative activity 24 hours later YP / Proliferative activity 48 hours later SM / Proliferative activity 48 hours later YE / Proliferative activity 48 hours later P / Proliferative activity 48 hours later YP: ∘: completely solidified culture solution due to proliferated cells; Δ: semifluid culture solution with slightly proliferated cells; x: liquid culture solution with unproliferated cells. How it is done: Four mediums, i.e., 10% skim milk (SM), 0.1% yeast extract (manufactured by Difco) +10% skim milk (YE), 0.1% peptone (manufactured by Difco) +10% skimmilk (P), and 0.1% yeast extract (manufactured by Difco) +0.1% peptone (manufactured by Difco) +10% skimmilk (YP) were subjected to high-pressure heat sterilization at 115° C. for 15 minutes, and then cell culture solutions of the five bacterial stains (A) and (B) obtained in Production Example 1 above (30 μl each) were separately inoculated into 3 ml of the respective mediums (the cell number of each bacterial strain: about 3·10^8 cells/ml), followed by culture at 37° C. for 24 hours and 48 hours. For proliferative activity tests, the culture solutions were evaluated based on the following criteria: completely solidified culture solution due to proliferated cells: “∘”; semifluid culture solution with slightly proliferated cells: “Δ”; and liquid culture solution with unproliferated cells: “x”.

In assay [4] the test system is horse gastric mucosal epithelial cell. The experiment in a line: Cell adhesion test to horse gastric mucosal epithelial cell. It counts as cell-based. The note with it: for Adhesion of bacteria to horse gastric mucosal epithelial cell: cells adhered to one gastric mucosal epithelial cell, 37° C., Giemsa stain. How it is done: Meanwhile, gastric mucosal epithelial tissue pieces (1 cm^2) taken from a horse were added to 3 ml (the cell number of each bacterial strain: about 3·10^8 cells/ml) of cell culture solutions of the five bacterial stains (A) and (B) obtained in Production Example 1 above, followed by culture with shaking at 37° C. Then, the gastric mucosal epithelial tissue pieces were washed with a buffer (composition: 0.8% NaCl; 0.121% K2HPO4; 0.034% KH2PO4; pH 7.2) several times, and the gastricmucosal epithelial cells were scraped off from the gastric mucosal epithelial tissue pieces under a stereomicroscope, followed by Giemsa stain. The resultant cells were used to count the number of cells of each bacterial strain that adhered to one gastric mucosal epithelial cell under a microscope, and the adhesion was evaluated.

Assay [5] is described as follows: Proliferative Activity Test 1 in presence of oxytetracycline hydrochloride. The class given is cell-based. Also noted: key: ∘: fully proliferated; Δ: slightly proliferated; x: unproliferated. The note with it: MRS agar, 37° C., 48 hours, anaerobic. As for the experimental part:
(§2) Meanwhile, the proliferative activity test in the presence of an antibiotic was performed using cell culture solutions containing (A) L. equi YIT0483 strain and (B) at least one selected from the four Lactobacillus strains in combination.
(§3) MRS agar mediums (manufactured by Difco) to which oxytetracycline hydrochloride was added as an antibiotic at concentrations of 10, 5, 2, and 0 µg/ml were prepared. Subsequently, a cell culture solution of only (A) L. equi strain and a mixed cell culture solution of (A) L. equi strain and (B) L. reuteri strain (10 μl each) were separately inoculated into the respective antibiotic-containing MRS mediums (the cell number of each bacterial strain: about 1·10^6 cells/ml), followed by smear culture at 37° C. for 48 hours under anaerobic conditions. Then, the proliferative activities of the bacteria were evaluated with the naked eye.

Assay [6] in a line: Proliferative Activity Test 2 in presence of gentamicin. Conditions: MRS agar, 37° C., 48 hours, anaerobic. It counts as cell-based. Details: key: ∘: fully proliferated; Δ: slightly proliferated; x: unproliferated. As for the experimental part: as §2
as §3, with “gentamicin” for “oxytetracycline hydrochloride”, “100, 50, 20,” for “10, 5, 2,”, “μg/ml” for “µg/ml”, “johnsonii” for “reuteri”

Assay [7] can be described thus: Proliferative Activity Test 3 in presence of ofloxacin. Also noted: key: ∘: fully proliferated; Δ: slightly proliferated; x: unproliferated. It counts as cell-based. The note with it: MRS agar, 37° C., 48 hours, anaerobic. How it is done: as §2
as §3, with “ofloxacin” for “oxytetracycline hydrochloride”, “100, 50, 20,” for “10, 5, 2,”, “μg/ml” for “µg/ml”, “johnsonii strain or L. equi strain and L. crispatus” for “reuteri”

Take `CC1(C)S[C@@H]2[C@H](NC(=O)[C@H](N)c3ccccc3)C(=O)N2[C@H]1C(=O)O` [Ampicillin]: the “Resistance of the strain to the antibiotic (in words)” value in assay [1] is recorded as “particularly excellent resistance”.

With `CC1(C)S[C@@H]2[C@H](NC(=O)Cc3ccccc3)C(=O)N2[C@H]1C(=O)O` [Benzylpenicillin], the “Resistance of the strain to the antibiotic (in words)” value in assay [1] was “stronger resistance”.

Regarding `CC(=O)OCC1=C(C(=O)O)N2C(=O)[C@@H](NC(=O)Cc3cccs3)[C@H]2SC1` [Cefalotin sodium], the “Resistance of the strain to the antibiotic (in words)” value in assay [1] was “particularly excellent resistance”.

Consider `CO/N=C(\C(=O)N[C@@H]1C(=O)N2C(C(=O)O)=C(CSc3nc(=O)c(=O)[nH]n3C)CS[C@H]12)c1csc(N)n1` [Ceftriaxone sodium], for which, in the assay on L. equi YIT0483 strain, the “Resistance of the strain to the antibiotic (in words)” value is recorded as “excellent specific resistance”.

In the case of `CN[C@@H]1[C@H](O[C@H]2[C@H](O[C@H]3[C@H](O)[C@@H](O)[C@H](NC(=N)N)[C@@H](O)[C@@H]3NC(=N)N)O[C@@H](C)[C@]2(O)CO)O[C@@H](CO)[C@H](O)[C@H]1O` [Dihydrostreptomycin], the “Resistance of the strains to the antibiotic (in words)” value (“Resistance of the strains” below) in assay [2] is on record as “excellent resistance”.

As to `COc1cc(NS(=O)(=O)c2ccc(N)cc2)ncn1` [Sulfamonomethoxine], the “Resistance of the strains” value in assay [2] is “excellent resistance”.

For Bactramin, in assay [2], the “Resistance of the strains” value is reported as “excellent resistance”.

Take “Lactobacillus crispatus YIT0481 strain [(B) L. crispatus YIT0481 strain]”: in assay [3], the “Proliferative activity 24 hours later P” value is reported as “∘”, the “Proliferative activity 48 hours later P” value is given as “∘”, the “Proliferative activity 24 hours later YP” value is on record as “∘” and the “Proliferative activity 48 hours later YP” value is on record as “∘”. Besides, in assay [3], the “Proliferative activity 24 hours later YE” value is listed as “∘”, the “Proliferative activity 48 hours later YE” value was “∘”, the “Proliferative activity 24 hours later SM” value is given as “x” and the “Proliferative activity 48 hours later SM” value was “∘”. Further, in assay [4], the “Adhesion of bacteria to horse gastric mucosal epithelial cell” value (shortened to “Adhesion of bacteria”) is listed as “+ (1-9 cells adhered to one gastric mucosal epithelial cell)”.

As for “Lactobacillus equi YIT0483 strain [(A) L. equi YIT0483 strain]”, the “Proliferative activity, Oxytetracycline 0 μg/ml” value in assay [5] (oxytetracycline 0 μg/ml) is recorded as “∘”. The “Proliferative activity, Oxytetracycline 2 μg/ml” value in assay [5] (oxytetracycline 2 μg/ml) is “x”. Also, the “Proliferative activity, Oxytetracycline 5 μg/ml” value in assay [5] (oxytetracycline 5 μg/ml) is reported as “x”. Also, in assay [5] (oxytetracycline 10 μg/ml), the “Proliferative activity, Oxytetracycline 10 μg/ml” value is “x”. For the same molecule, in assay [3], the “Proliferative activity 24 hours later P” value is “∘”, the “Proliferative activity 48 hours later P” value is given as “∘”, the “Proliferative activity 24 hours later YP” value is “∘” and the “Proliferative activity 48 hours later YP” value was “∘”. For the same molecule, in assay [3], the “Proliferative activity 24 hours later YE” value was “∘”, the “Proliferative activity 48 hours later YE” value was “∘”, the “Proliferative activity 24 hours later SM” value is on record as “∘” and the “Proliferative activity 48 hours later SM” value was “∘”. Besides, the “Proliferative activity (in words)” value in assay [3] (under the respective medium conditions) is recorded as “excellent proliferative activity”. Moreover, in assay [4], the “Adhesion to horse gastric mucosal epithelial cells (in words)” value is listed as “excellent” and the “Adhesion of bacteria” value was “++ (10-99 cells adhered to one gastric mucosal epithelial cell)”. In assay [6] (gentamicin 0 μg/ml), the “Proliferative activity, Genatmicin 0 μg/ml” value was “∘”. Further, the “Proliferative activity, Genatmicin 20 μg/ml” value in assay [6] (gentamicin 20 μg/ml) is “Δ”. In addition, the “Proliferative activity, Genatmicin 50 μg/ml” value in assay [6] (gentamicin 50 μg/ml) is reported as “x”. Also, in assay [6] (gentamicin 100 μg/ml), the “Proliferative activity, Genatmicin 100 μg/ml” value was “x”. In assay [7] (ofloxacin 0 μg/ml), the “Proliferative activity, Ofloxacin 0 μg/ml” value was “∘”. The “Proliferative activity, Ofloxacin 20 μg/ml” value in assay [7] (ofloxacin 20 μg/ml) was “x”. Also, the “Proliferative activity, Ofloxacin 50 μg/ml” value in assay [7] (ofloxacin 50 μg/ml) is “x”. In addition, in assay [7] (ofloxacin 100 μg/ml), the “Proliferative activity, Ofloxacin 100 μg/ml” value is given as “x”.

As to “Lactobacillus johnsonii YIT0482 strain [(B) L. johnsonii YIT0482 strain]”, in assay [3], the “Proliferative activity 24 hours later P” value is “∘”, the “Proliferative activity 48 hours later P” value is “∘”, the “Proliferative activity 24 hours later YP” value is given as “∘” and the “Proliferative activity 48 hours later YP” value is reported as “∘”. In assay [3], the “Proliferative activity 24 hours later YE” value is given as “∘”, the “Proliferative activity 48 hours later YE” value was “∘”, the “Proliferative activity 24 hours later SM” value was “x” and the “Proliferative activity 48 hours later SM” value is “x”. Besides, the “Adhesion of bacteria” value in assay [4] is on record as “+ (1-9 cells adhered to one gastric mucosal epithelial cell)”.

“Lactobacillus reuteri YIT0480 strain [(B) L. reuteri YIT0480 strain]”: in assay [3], the “Proliferative activity 24 hours later P” value was “∘”, the “Proliferative activity 48 hours later P” value is listed as “∘”, the “Proliferative activity 24 hours later YP” value was “∘” and the “Proliferative activity 48 hours later YP” value was “∘”. For the same molecule, in assay [3], the “Proliferative activity 24 hours later YE” value is reported as “∘”, the “Proliferative activity 48 hours later YE” value is given as “∘”, the “Proliferative activity 24 hours later SM” value was “x” and the “Proliferative activity 48 hours later SM” value was “x”. In addition, the “Adhesion of bacteria” value in assay [4] was “+ (1-9 cells adhered to one gastric mucosal epithelial cell)”.

Regarding “Lactobacillus salivarius YIT0479 strain [(B) L. salivarius YIT0479 strain]”, in assay [3], the “Proliferative activity 24 hours later P” value is on record as “∘”, the “Proliferative activity 48 hours later P” value is “∘”, the “Proliferative activity 24 hours later YP” value is on record as “∘” and the “Proliferative activity 48 hours later YP” value is listed as “∘”. For the same molecule, in assay [3], the “Proliferative activity 24 hours later YE” value is listed as “∘”, the “Proliferative activity 48 hours later YE” value is given as “∘”, the “Proliferative activity 24 hours later SM” value is listed as “x” and the “Proliferative activity 48 hours later SM” value is reported as “∘”. Moreover, the “Adhesion of bacteria” value in assay [4] is “++ (10-99 cells adhered to one gastric mucosal epithelial cell)”.
